Assay results as given in EP3644968B1, “LEVOCLOPERASTINE FENDIZOATE SUSPENSION HAVING ENHANCED DISSOLUTION AND RESUSPENDABILITY” (Ilko Ilaç Sanayi Ve Ticaret Anonim Sirketi, priority 2017, dated 2019).

Experiments:
[1] = test system: cough caused by tracheal mechanical stimulus; settings: guinea pig, relative to codeine; cited from earlier work
cough = settings: cited from earlier work
[2] = particle size distribution by laser diffraction (Malvern Mastersizer-2000, dry dispersion); format: physicochemical; settings: volume particle size distribution of the drug substance used
Description: Particle size is determined by laser light scattering using a particle size analyzer, such as the proprietary Mastersizer™ apparatus in a dry dispersion system available from Malvern Instruments Ltd. (Malvern Mastersizer-2000, single narrow mode). Laser diffraction enables to measure particle size distributions by measuring the angular variation by scattering light intensity as a laser beam passes through a dispersed particulate sample. Large particles scatter light at small angles relative to the laser beam and small particles scatter light at large angles. The angular scattering intensity data is then analyzed to calculate the size of the particles responsible for creating the scattering pattern, using the Mie theory of light scattering. The particle size is reported as a volume equivalent sphere diameter.
A common approach to define the distribution width is to cite three values on the x-axis as D10, D50 and D90. The D50, named as median, has been defined as the diameter where 50 percent of the distribution lies below this value. Similarly, D90 has been defined as 90 percent of the distribution lies below, and 10 percent of the population lies below the D10.

SMILES | efficacy against cough, times greater than codeine [1] [times] | duration of action of a single dose (cough; single dose) [h] | initial response after oral administration (cough; therapeutic dose range 10-20 mg three times daily for adults, oral) [min] | d(0.1) [2] | d(0.5) [2] | d(0.9) [2]
Clc1ccc(C(OCCN2CCCCC2)c2ccccc2)cc1 (racemic) [cloperastine] | 1.9 | 3 to 4 | 20 to 30 |  |  | 
Clc1ccc([C@@H](OCCN2CCCCC2)c2ccccc2)cc1.O=C(O)c1ccccc1C(=O)c1ccc(O)c(-c2ccccc2)c1 [Levocloperastine fendizoate] |  |  |  | d(0.1): 3.031 µm | d(0.5): 13.126 µm | d(0.9): 39.322 µm
